Measured values: patent publication US20230099344A1, “COMPOUNDS AND METHODS FOR THE TARGETED DEGRADATION OF IRAK-4” (Arvinas Operations, Inc., priority 2021, published 2023)

Target: T1, IRAK-4 (Homo sapiens, UniProt Q9NWZ3)
T1 sequence (Q9NWZ3 1-460): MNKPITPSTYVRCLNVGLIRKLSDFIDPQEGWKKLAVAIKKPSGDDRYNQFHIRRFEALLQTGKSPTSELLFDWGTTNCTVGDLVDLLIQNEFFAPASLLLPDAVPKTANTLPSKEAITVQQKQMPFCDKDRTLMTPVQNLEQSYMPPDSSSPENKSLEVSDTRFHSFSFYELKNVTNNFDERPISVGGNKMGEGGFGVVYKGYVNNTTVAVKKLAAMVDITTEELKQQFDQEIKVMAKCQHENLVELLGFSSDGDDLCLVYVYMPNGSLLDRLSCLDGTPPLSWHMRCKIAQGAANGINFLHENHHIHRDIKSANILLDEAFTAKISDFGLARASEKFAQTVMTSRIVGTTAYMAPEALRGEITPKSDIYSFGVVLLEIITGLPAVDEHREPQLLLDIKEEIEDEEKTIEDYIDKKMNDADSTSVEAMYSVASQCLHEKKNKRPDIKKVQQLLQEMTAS
Experiment: IRAK-4 ELISA, PBMC degradation
Type: cell-based
Parameters: endogenous in cells; host or cells: PBMC
Conditions: treated overnight
In short: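 IRAK-4 levels measured by matched-antibody-pair ELISA on lysates after overnight compound exposure. Cells seeded same day: PBMC at 2×10^6/ml, OCI-Ly10 at 1×10^6/ml.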

| DC50 [nM] | Dmax [%] | PBMC DC90 | PBMC Dmax | Structure (SMILES) |
| --- | --- | --- | --- | --- |
| < 1 | 80 to 90 | A (A represents a DC90 value <10.0 nM) | – | CC(C)Oc1nc2nn(C3CCN(CC4(F)CN(c5ccc6c(c5)CN(C5CCC(=O)NC5=O)C6=O)C4)CC3)cc2cc1NC(=O)c1cnn2cccnc12 (centres unmarked) [Example 416, N-[2-[1-[[1-[2-(2,6-dioxo-3-piperidyl)-1-oxo-isoindolin-5-yl]-3-fluoro-azetidin-3-yl]methyl]-4-piperidyl]-6-isopropoxy-pyrazolo[3,4-b]pyridin-5-yl]pyrazolo[1,5-a]pyrimidine-3-carboxamide] |
| < 1 | ≥ 90 | A (A represents a DC90 value <10.0 nM) | – | CN(C1CCC(N2Cc3cc(NC(=O)c4cnn5cccnc45)c(OCC4CC4)cc3C2=O)CC1)C1CN(c2ccc3c(c2)C(=O)N(C2CCC(=O)NC2=O)C3=O)C1 (centres unmarked) [Example 345] |
| < 1 | ≥ 90 | A (A represents a DC90 value <10.0 nM) | – | CN(C1CCC(N2Cc3cc(NC(=O)c4cnn5cccnc45)c(OC4CC4)cc3C2=O)CC1)C1CN(c2ccc3c(c2)C(=O)N(C2CCC(=O)NC2=O)C3=O)C1 (centres unmarked) [Example 341] |
| 1 to 5 | ≥ 90 | A (A represents a DC90 value <10.0 nM) | – | CCN(C1CN(c2ccc(C(=O)NC3CCC(=O)NC3=O)c(F)c2)C1)[C@H]1CC[C@H](n2cc3cc(NC(=O)c4cnn5cccnc45)c(OC(C)C)cc3n2)CC1 (some centres unmarked) [Example 322] |
| 5 to 10 | 80 to 90 | D (D represents a DC90 value ≥50 nM) | – | O=C1CCC(N2C(=O)c3ccc(N4CC(F)(CN5CCC(n6cc7cc(NC(=O)c8cnn9ccc(N%10C[C@H]%11C[C@@H]%10CO%11)nc89)c(C(F)F)cc7n6)CC5)C4)cc3C2=O)C(=O)N1 (some centres unmarked) [Example 410] |
| < 1 | ≥ 90 | A (A represents a DC90 value <10.0 nM) | – | COc1cc(N2CC(CN3CCC(n4cc5cc(NC(=O)c6cnn7cccnc67)c(OCC6CC6)cc5n4)CC3)C2)cc2c1C(=O)N(C1CCC(=O)NC1=O)C2 (centres unmarked) [Example 124] |
| ≥ 10 | 80 to 90 | D (D represents a DC90 value ≥50 nM) | – | O=C1CCC(N2Cc3cc(N4CC(N5CCC(N6Cc7cc(NC(=O)c8cnn9cccnc89)c(N8CCOCC8)nc7C6=O)CC5)C4)ccc3C2=O)C(=O)N1 (centres unmarked) [Example 404, N-[6-[1-[1-[2-(2,6-dioxo-3-piperidyl)-1-oxo-isoindolin-5-yl]azetidin-3-yl]-4-piperidyl]-2-morpholino-7-oxo-5H-pyrrolo[3,4-b]pyridin-3-yl]pyrazolo[1,5-a]pyrimidine-3-carboxamide] |
| – | – | A (A represents a DC90 value <10.0 nM) | A (A represents a Dmax value ≥90) | CC(C)Oc1cc2c(cc1NC(=O)c1cnn3cccnc13)CN(C1CCC(N(C)C3CN(c4ccc5c(c4)CN(C4CCC(=O)NC4=O)C5=O)C3)CC1)C2=O (centres unmarked) [Example 329] |
| < 1 | 80 to 90 | A (A represents a DC90 value <10.0 nM) | – | CN(CC1CCN(c2ccc3c(c2)C(=O)N(C2CCC(=O)NC2=O)C3=O)CC1)[C@H]1CC[C@H](n2cc3cc(NC(=O)c4cnn5cccnc45)c(OCC4CC4)cc3n2)CC1 (some centres unmarked) [Example 349] |
| < 1 | ≥ 90 | A (A represents a DC90 value <10.0 nM) | – | COc1cc(N2CCC(CN3CCC(n4cc5cc(NC(=O)c6cnn7cccnc67)c(OCC6CC6)cc5n4)CC3)CC2)cc2c1C(=O)N(C1CCC(=O)NC1=O)C2=O (centres unmarked) [Example 133] |
| < 1 | ≥ 90 | A (A represents a DC90 value <10.0 nM) | – | CC(C)Oc1cc2c(cc1NC(=O)c1cnn3cccnc13)CN(C1CCC(N(C)C3CN(c4ccc(C(=O)NC5CCC(=O)NC5=O)c(F)c4)C3)CC1)C2=O (centres unmarked) [Example 328] |

| Structure (SMILES) | DC50 [nM] | Dmax [%] | PBMC DC90 | PBMC Dmax |
| --- | --- | --- | --- | --- |
| CCN(C1CCC(n2cc3cc(NC(=O)c4cnn5cccnc45)c(OCC4CC4)cc3n2)CC1)C1CN(c2ccc3c(c2)C(=O)N(C2CCC(=O)NC2=O)C3=O)C1 (centres unmarked) [Example 325] | 1 to 5 | ≥ 90 | C (C represents a DC90 value ≥25.0 nM and <50 nM) | – |
